The NIST ThermoML archive (doi:10.1021/acs.jced.8b00715)
Numbers after ± are expanded uncertainties. Blank lines part the entries; values can stand above or below the compound they belong to.

Assays:
[1] = refractive index (Na D-line) (dimensionless); wn = mass fraction of the nth substance listed; settings: 298.15 K, 100 kPa, Liquid, Standard Abbe refractometry
[2] = wn = mass fraction of the nth substance listed; settings: 298.15 K, 100 kPa, Liquid, Vibrating tube method

refractive index ([1]; w1 = 0.2645): 1.3796 ± 0.0015
mass density ([2]; w1 = 0.2645): 1198.1 ± 5.6 kg/m3
SMILES: [Cl-].[Na+] [sodium chloride] + O

refractive index ([1]; w1 = 0.2259): 1.3872 ± 0.0007
mass density ([2]; w1 = 0.2259): 1267.8 ± 1.1 kg/m3
SMILES: O=B[O-].[Na+] [sodium metaborate] + O

refractive index ([1]; w1 = 0.219): 1.3626 ± 0.002
mass density ([2]; w1 = 0.219): 1204.85 ± 14 kg/m3
SMILES: O=S(=O)([O-])[O-].[Na+].[Na+] [sodium sulfate] + O
